What was measured:
[1] = test system: Antigen-induced arthritis; assay: Antigen-induced arthritis in rats, histological examination of joint inflammation and joint cartilage destruction; type: in vivo; details: for Degree of cartilage destruction / Degree of joint inflammation: 3.75 mg/kg intravenously 6, 24 and 48 hours after induction, scale 0: no changes, 6: massive changes compared to healthy knee
Experimental: (§1) Antigen-induced arthritis was provoked in test animals (rats) according to Buchner (“Behandlung der antigeninduzierten Arthritis der Ratte mit Anti-Makrophagenprinzipien und monoklonalen Anti-CD4 Antikörpern”, Ph.D. thesis 1996, Friedrich-Alexander University Erlangen-Nuremberg, Germany, p. 129).
(§2) Arthritis was provoked on day 0 according to Buchner by intra-articular injection of the antigen into the synovial gap in the right knee. The arthritic animals were treated intravenously with liposomal dexamethasone phosphate (formulation A, 3.75 mg/kg) 6, 24 and 48 hours after induction of arthritis. Free dexamethasone phosphate (formulation K, likewise 3.75 mg/kg) and physiological salt solution (saline) were used as controls. The effect of sample administration was established using the following parameters: • determination of joint swelling (cf., FIG. 1)
histological examination of inflammation parameters and of joint cartilage destruction parameters (cf. FIG. 2 and Table 2)
Degree of joint cartilage destruction and joint inflammation of arthritic animals after treatment
0: no changes compared to healthy knee
In analogy to Example 3, antigen-induced arthritis was provoked in the test animals. Arthritis was provoked on day 0 by intra-articular injection of the antigen into the synovial gap in the right knee. The arthritic animals were treated intravenously with liposomal dexamethasone phosphate (formulation B, C, 3.75 mg/kg each time, according to Table 4) 6, 24 and 48 hours after induction of arthritis. Free dexamethasone phosphate (formulation K, likewise 3.75 mg/kg) and physiological salt solution (saline) were used as controls. The effect of sample administration was established using the following parameters: • determination of joint swelling (cf., FIG. 5)
histological examination of inflammation parameters and of joint cartilage destruction parameters (cf., FIG. 2 and Table 5)

[2] = test system: Antigen-induced arthritis; assay: Antigen-induced arthritis in rats, determination of joint swelling; type: in vivo; details: 0.375 mg per kg body weight
Experimental: as §1, §2
Arthritis was provoked in rats in analogy to Example 3, and the rats were treated with the following formulations containing only one tenth of the dexamethasone phosphate dose specified in Example 3:
In analogy to Example 3, antigen-induced arthritis was provoked in the test animals. Arthritis was provoked on day 0 by intra-articular injection of the antigen into the synovial gap in the right knee. […]

## C[C@@H]1C[C@H]2[C@@H]3CCC4=CC(=O)C=C[C@]4(C)[C@@]3(F)[C@@H](O)C[C@]2(C)[C@@]1(O)C(=O)COP(=O)(O)O [Formulation K, dexamethasone phosphate]
[1]; Hematoxylin/eosin staining, magnified 92fold
  Histological sections of arthritic knee joints (FIG. 2), finding: massive inflammation and destruction of cartilage and bone
[1]; Table 2, rats
  Degree of cartilage destruction: 2.75
  Degree of joint inflammation: 3.5
[1]; Table 5, rats
  Degree of cartilage destruction: 2.75
  Degree of joint inflammation: 3.5
[1]; rats, 3.75 mg/kg intravenously
  Joint cartilage destruction and inflammatory reactions after treatment (in words): considerably less effective
[2]
  Suppression of antigen-induced arthritis: developed all symptoms of the animal model after short amelioration

— patent US20060147511A1, “Liposomal glucocorticoids” (priority 2002, published 2006)
